Measured values: publication PMC11439681, “The identification of potent dual-target monopolar spindle 1 (MPS1) and histone deacetylase 8 (HDAC8) inhibitors through pharmacophore modeling, molecular docking, molecular dynamics simulations, and biological evaluation” (Frontiers in Pharmacology, 2024)

Experiments:
[1] = target: T1, MPS1 (Homo sapiens, UniProt P33981); assay: In vitro MPS1 inhibitory assay; assay type: biochemical
T1 construct: purchased Abcam
T1 sequence (P33981 1-857): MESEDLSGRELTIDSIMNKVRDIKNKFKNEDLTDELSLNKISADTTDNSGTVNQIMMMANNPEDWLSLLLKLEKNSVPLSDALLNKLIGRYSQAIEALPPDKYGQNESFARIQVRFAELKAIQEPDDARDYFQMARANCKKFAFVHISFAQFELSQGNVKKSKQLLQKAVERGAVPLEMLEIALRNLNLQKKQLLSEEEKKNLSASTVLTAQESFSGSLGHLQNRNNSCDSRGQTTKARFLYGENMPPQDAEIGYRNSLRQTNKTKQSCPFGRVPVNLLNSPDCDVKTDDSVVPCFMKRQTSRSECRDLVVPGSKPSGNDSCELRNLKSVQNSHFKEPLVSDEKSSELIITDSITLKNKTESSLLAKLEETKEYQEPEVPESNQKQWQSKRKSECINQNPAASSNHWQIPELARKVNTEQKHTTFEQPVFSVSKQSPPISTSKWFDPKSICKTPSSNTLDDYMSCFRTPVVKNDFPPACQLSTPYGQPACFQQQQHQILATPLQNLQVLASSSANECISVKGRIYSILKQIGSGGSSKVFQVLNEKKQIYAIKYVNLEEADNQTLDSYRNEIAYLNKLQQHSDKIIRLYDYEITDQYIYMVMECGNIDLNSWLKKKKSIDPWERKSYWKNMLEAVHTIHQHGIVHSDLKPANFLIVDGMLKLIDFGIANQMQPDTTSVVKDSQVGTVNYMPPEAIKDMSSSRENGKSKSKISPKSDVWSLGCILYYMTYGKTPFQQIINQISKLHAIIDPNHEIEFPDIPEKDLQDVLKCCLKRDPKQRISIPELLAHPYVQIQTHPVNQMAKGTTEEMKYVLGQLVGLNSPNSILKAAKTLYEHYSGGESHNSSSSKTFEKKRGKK
Protocol: The methodology is as previously described ([Naud et al., 2013]). In brief, the experiment was conducted using 384-well black low-volume plates, which were loaded with MPS1 (concentration range of 3–12.5 nM), 5 μM fluorescence-labelled peptide (sequence: 5FAM-[…]-CONH2), 10 μM ATP, 1% (v/v) DMSO or the test compound (concentrations in 1% (v/v) DMSO ranged from 0.25 to 100 μM), and assay buffer. […]. The plate was read on a Caliper EZ reader II (PerkinElmer Life Sciences, Waltham, MA, United States). […]

[2] = tested on: HepG2 liver cancer cells; assay: MTT cytotoxicity assay, HepG2; assay type: cell-based; conditions: Homo sapiens, 72 h cell treatment
Protocol: The cells (5 × 10^4 cells/well) were incubated overnight in 96-well plates. A series of solutions containing varying concentrations of inhibitors were added and incubated at 37°C for a period of 72 h. Subsequently, the culture medium was removed, followed by a subsequent incubation of the cells with a 5 mg/mL MTT stock solution for 4 h. After centrifugation, the precipitate was solubilized in DMSO and gently shaken for 15 min. Finally, the absorbance measurement at 570 nm was completed using a microplate reader. Data analysis was performed using GraphPad Prism 6.0 software.

[3] = target: T2, HDAC8 (Homo sapiens, UniProt Q9BY41); assay: In vitro HDAC8 inhibitory assay; assay type: biochemical; conditions: 90 min at 37°C
T2 construct: purchased Abcam
T2 sequence (Q9BY41 1-377): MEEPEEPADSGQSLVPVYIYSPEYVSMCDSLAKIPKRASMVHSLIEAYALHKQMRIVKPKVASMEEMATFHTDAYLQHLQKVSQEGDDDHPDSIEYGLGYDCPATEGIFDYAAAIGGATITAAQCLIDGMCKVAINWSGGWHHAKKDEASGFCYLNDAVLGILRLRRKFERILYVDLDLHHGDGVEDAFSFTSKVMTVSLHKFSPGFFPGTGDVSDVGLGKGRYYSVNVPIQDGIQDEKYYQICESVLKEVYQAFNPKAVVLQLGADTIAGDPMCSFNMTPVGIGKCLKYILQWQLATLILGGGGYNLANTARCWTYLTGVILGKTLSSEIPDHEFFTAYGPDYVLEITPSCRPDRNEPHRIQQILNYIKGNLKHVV
Protocol: Inhibition of HDAC8 was determined in 96-well plates. […] The assessment of fluorescence intensity was executed at 390 nm and 460 nm via a microplate reader.

| Compound | MPS1 (IC50, nM) ([1]; 10 μM ATP, 60 min, room temperature) | IC50 [1] [nM] | IC50 [2] [µM] | IC50 [3] [nM] |
| --- | --- | --- | --- | --- |
| O=C(/C=C/c1cccc(S(=O)(=O)Nc2ccccc2)c1)NO [Belinostat, reference compound] | No inhibition |  |  |  |
| CC1=CC(c2cc3cnc(Nc4ccc(-c5cccc[n+]5/C=C/C(=O)NO)cc4Cl)cc3n2C(=O)OC(F)(F)F)C=N1 (stereo not shown) [MPH-1] |  | 9.38 ± 0.41 | 0.47 | 17.5 ± 2.32 |
| COc1cc(-c2cncn2/C=C/C(=O)NO)ccc1Nc1cc2c(cn1)cc(C1C=CN=C1)n2C(=O)OC(C)(C)C (stereo not shown) [MPH-2] |  | 7.6 ± 0.35 | 0.32 | 8.15 ± 0.58 |
| Cc1ncc(-c2ccc(Nc3cc4c(cn3)cc(C3C=NC(C(F)(F)F)=C3)n4C(=O)OC(C)(C)C)cc2)n1/C=C/C(=O)NO (stereo not shown) [MPH-3] |  | 13.2 ± 0.82 | 0.55 | 15.2 ± 1.94 |
| COc1cc(-c2cnc(C)n2/C=C/C(=O)NO)ccc1Nc1cc2c(cn1)cc(C1C=CN=C1)n2C(=O)OC(F)(F)F (stereo not shown) [MPH-4] |  | 11.7 ± 0.95 | 0.41 | 13.5 ± 0.61 |
| CC(C)(C)OC(=O)n1c(-c2cn[nH]c2C(F)F)cc2cnc(Nc3ccc(-c4cnc(C(F)(F)F)n4/C=C/C(=O)NO)cc3Cl)cc21 [MPH-6] |  | 10.8 ± 0.69 | 0.53 | 16.6 ± 2.06 |
